Residues, ends and D or L forms follow the SMILES beside them.
Experiments:
soluble H-2D^b [1] = biological target: soluble H-2D^b (Mus musculus, UniProt P01899); assay: biochemical; assay type: binding
soluble H-2D^b [2] = assay: radioligand binding

Chain of soluble H-2D^b (Mus musculus, UniProt P01899) (P01899 25-362): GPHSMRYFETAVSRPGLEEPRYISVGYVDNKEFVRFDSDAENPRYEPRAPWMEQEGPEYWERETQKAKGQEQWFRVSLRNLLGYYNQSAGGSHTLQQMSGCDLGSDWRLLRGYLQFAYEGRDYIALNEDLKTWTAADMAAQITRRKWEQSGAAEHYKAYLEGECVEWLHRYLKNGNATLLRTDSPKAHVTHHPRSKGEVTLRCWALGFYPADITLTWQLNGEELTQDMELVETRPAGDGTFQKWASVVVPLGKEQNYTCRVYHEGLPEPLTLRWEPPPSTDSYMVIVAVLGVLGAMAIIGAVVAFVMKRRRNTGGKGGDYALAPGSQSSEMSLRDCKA
Chain of soluble H-2D^b (Mus musculus, UniProt P01899) (P01887 21-119, further chain): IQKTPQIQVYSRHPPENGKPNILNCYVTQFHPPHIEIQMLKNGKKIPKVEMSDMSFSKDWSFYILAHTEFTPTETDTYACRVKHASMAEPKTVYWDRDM

Compound: CSCC[C@H](NC(=O)[C@@H](NC(=O)[C@H](CC(=O)O)NC(=O)[C@H](CCSC)NC(=O)[C@H](CC(N)=O)NC(=O)[C@H](CCC(=O)O)NC(=O)[C@H](CC(N)=O)NC(=O)[C@H](CO)NC(=O)[C@H](C)N)[C@@H](C)O)C(=O)O [NP366-374] (H-ASNENMDTM-OH)
- IC50 (soluble H-2D^b [1]): 6 nM

Compound: NP_(366-374) peptide of A/Memphis/102/72
- IC50 (soluble H-2D^b [2]): 6 nM

— paper PMC2213532 (The Journal of Experimental Medicine, 2000)
